Assay results taken from patent US10072026B2, “Crystalline form of 3-((1R,3s,5S)-3-((7-((5-methyl-1H-pyrazol-3-yl)amino)-1,6-naphthyridin-5-yl)amino)-8-azabicyclo[3.2.1]octan-8-yl)propanenitrile” (priority 2015, dated 2018).
Like-named read-outs stand apart in the source and are kept apart here.

Assays:
JAK2 = JAK2 (Homo sapiens (Human), UniProt O60674); test: LanthaScreen JAK biochemical assay (JAK2); settings: for Ki: read-out: JAK 2 (pKi) (converted)
[1] = tested on: IL-4 induced STAT6 phosphorylation in THP-1 human monocytic cells; test: Cellular JAK potency assay, THP-1
JAK1 = JAK1 (Homo sapiens (Human), UniProt P23458); test: LanthaScreen JAK biochemical assay (JAK1)
Tyk2 = Tyk2 (Homo sapiens (Human), UniProt P29597); test: LanthaScreen JAK biochemical assay (Tyk2); settings: for Ki: read-out: Tyk 2 (pKi) (converted)
[2] = tested on: IL-13 induced STAT6 phosphorylation in BEAS-2B human lung epithelial cells; test: AlphaScreen cellular JAK potency assay, BEAS-2B; settings: for BEAS2B pIC50: BEAS-2B cells, IL-13 induced STAT6 phosphorylation; for IC50: Homo sapiens, BEAS-2B, read-out: BEAS2B pIC50 (converted)
[3] = IL-4 induced STAT6 phosphorylation, THP-1 cells
[4] = Homo sapiens, THP-1, read-out: THP-1 IL4 pIC50 (converted)
[5] = read-out: JAK 1 (pKi) (converted)
[6] = THP-1 cells, IL-4 induced STAT6 phosphorylation

JAK2, sequence (O60674 whole entry): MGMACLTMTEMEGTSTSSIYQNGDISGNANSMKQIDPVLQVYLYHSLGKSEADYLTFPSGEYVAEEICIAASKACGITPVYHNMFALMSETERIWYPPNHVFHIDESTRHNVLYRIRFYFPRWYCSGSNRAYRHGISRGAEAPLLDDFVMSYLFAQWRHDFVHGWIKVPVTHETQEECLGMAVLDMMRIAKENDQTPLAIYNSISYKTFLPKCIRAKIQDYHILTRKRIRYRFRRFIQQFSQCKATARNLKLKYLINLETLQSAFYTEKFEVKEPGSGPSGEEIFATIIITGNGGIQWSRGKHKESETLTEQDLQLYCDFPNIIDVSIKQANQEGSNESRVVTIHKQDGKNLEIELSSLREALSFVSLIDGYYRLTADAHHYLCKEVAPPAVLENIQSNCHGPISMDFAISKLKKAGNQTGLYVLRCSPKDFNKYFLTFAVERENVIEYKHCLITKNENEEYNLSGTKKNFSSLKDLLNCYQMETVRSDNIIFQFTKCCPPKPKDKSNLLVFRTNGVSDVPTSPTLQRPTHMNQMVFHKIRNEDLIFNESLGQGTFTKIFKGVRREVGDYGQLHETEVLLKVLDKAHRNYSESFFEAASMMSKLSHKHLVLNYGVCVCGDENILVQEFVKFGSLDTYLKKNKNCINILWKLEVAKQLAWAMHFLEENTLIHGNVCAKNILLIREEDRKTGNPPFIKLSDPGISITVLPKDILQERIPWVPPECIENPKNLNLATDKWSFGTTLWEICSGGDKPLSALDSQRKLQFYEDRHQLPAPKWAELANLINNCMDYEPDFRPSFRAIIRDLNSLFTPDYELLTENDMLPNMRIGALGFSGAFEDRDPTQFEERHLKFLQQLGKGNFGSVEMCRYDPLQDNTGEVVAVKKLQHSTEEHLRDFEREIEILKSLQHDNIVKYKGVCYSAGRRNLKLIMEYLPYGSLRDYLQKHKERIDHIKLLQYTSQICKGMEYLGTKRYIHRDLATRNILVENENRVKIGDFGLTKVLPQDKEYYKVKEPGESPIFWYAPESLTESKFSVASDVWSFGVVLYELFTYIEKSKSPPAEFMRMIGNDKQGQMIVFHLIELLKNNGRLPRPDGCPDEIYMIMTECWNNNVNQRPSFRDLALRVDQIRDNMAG
JAK1, sequence (P23458 whole entry): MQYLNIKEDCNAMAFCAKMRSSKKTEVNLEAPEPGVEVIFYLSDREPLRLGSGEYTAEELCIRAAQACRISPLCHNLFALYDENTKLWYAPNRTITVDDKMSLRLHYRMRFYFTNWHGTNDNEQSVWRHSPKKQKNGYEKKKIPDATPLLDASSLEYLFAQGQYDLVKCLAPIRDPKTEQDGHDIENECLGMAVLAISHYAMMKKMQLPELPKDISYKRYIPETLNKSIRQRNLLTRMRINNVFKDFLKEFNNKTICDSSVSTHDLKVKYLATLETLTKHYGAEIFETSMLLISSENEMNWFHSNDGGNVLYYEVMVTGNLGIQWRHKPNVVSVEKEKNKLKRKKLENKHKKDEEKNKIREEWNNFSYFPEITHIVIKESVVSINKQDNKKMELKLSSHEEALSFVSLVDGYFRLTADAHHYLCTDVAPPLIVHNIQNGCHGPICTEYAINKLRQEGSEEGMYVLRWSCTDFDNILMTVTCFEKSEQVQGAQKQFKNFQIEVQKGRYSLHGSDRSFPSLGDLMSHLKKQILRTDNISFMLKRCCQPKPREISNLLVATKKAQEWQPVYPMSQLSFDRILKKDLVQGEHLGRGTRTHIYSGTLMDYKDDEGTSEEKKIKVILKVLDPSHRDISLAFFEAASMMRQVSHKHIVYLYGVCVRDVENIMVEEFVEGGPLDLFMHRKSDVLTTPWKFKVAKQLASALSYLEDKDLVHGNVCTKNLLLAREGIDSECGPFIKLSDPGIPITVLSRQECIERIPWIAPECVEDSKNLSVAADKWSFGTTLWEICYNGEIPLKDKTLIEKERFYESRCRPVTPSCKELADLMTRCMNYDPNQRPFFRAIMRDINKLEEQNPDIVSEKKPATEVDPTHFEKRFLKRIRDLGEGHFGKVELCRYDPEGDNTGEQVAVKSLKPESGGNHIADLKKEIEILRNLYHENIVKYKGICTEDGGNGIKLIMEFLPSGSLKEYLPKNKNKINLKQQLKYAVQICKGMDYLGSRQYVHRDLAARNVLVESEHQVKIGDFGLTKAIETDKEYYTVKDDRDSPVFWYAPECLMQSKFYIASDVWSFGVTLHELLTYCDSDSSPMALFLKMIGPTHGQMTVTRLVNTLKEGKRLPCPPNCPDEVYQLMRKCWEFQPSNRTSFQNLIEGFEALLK
Tyk2, sequence (P29597 whole entry): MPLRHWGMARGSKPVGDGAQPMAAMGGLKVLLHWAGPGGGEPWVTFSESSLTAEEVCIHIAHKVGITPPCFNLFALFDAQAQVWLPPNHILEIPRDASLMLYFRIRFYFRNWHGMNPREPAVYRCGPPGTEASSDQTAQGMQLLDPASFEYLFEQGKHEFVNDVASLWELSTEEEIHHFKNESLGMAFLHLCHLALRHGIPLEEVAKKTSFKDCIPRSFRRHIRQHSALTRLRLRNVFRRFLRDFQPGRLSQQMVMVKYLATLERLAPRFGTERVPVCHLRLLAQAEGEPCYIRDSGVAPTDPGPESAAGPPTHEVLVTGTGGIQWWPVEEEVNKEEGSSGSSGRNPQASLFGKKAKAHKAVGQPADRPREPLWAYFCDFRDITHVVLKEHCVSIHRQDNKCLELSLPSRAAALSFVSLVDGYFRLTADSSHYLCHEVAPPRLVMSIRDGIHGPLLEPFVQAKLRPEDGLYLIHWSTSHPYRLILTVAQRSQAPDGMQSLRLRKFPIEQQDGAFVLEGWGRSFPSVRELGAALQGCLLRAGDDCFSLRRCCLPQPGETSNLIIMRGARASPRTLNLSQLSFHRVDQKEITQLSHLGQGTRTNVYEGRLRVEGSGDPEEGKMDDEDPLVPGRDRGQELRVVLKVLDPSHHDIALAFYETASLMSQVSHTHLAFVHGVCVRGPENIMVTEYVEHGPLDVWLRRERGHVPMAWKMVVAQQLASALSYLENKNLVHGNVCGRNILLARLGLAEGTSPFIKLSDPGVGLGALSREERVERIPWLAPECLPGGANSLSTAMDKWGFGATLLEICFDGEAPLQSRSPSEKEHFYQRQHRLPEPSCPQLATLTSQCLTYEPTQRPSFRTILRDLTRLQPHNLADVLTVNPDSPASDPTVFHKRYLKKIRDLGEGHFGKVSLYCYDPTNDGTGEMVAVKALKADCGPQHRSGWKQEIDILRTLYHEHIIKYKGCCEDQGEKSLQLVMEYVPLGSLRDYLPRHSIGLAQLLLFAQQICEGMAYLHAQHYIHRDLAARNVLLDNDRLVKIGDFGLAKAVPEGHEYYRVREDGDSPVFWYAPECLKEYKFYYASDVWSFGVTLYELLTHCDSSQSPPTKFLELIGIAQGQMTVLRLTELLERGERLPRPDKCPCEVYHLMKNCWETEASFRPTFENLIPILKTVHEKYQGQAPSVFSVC

SMILES | JAK 2 (pKi) (JAK2) | JAK 1 (pKi) (JAK1) | Ki (JAK2) [nM] | IC50 [1, 4] [nM] | Ki (Tyk2) [nM] | THP-1 IL4 pIC50 [1, 6] | BEAS2B pIC50 [2] | further results
COCCCN1[C@@H]2CC[C@H]1C[C@H](Nc1nc(Nc3cc(C)[nH]n3)cc3ncccc13)C2 [Example 1-15] | C (C represents a pKi value between 7 and 9 (Ki between 100 nM and 1 nM)) | C (C represents a pKi value between 7 and 9 (Ki between 100 nM and 1 nM)) |  |  |  |  |  | THP-1 IL4 pIC50 [1, 3]: C (C represents a pEC50 value<6.7 (EC50>200 nM)); Tyk 2 (pKi) (Tyk2): C (C represents a pKi value between 7 and 9 (Ki between 100 nM and 1 nM))
Cc1cc(Nc2cc3ncccc3c(N[C@@H]3C[C@H]4CC[C@@H](C3)N4C3CCCOC3=O)n2)n[nH]1 (stereo partly shown) [Example 1-28] |  |  | 1 to 100 | > 200 | 1 to 100 |  |  | 
Cc1cc(Nc2cc3ncccc3c(N[C@@H]3C[C@H]4CCC[C@@H](C3)N4CC(N)=O)n2)n[nH]1 [Example 1-37] | A (A represents a pKi value≥10 (Ki≤0.1 nM)) |  |  |  |  |  |  | THP-1 IL4 pIC50 [1, 3]: B (B represents a pEC50 value between 6.7 and 7.5 (EC50 between 200 nM and 32 nM)); Tyk 2 (pKi) (Tyk2): C (C represents a pKi value between 7 and 9 (Ki between 100 nM and 1 nM))
Cc1cc(Nc2cc3ncccc3c(N[C@@H]3C[C@H]4CC[C@@H](C3)N4C(=O)CF)n2)n[nH]1 [Example 2-2] |  |  | 1 to 100 |  | 1 to 100 |  |  | Ki (JAK1; [5]): 0.1 to 1 nM
CCOC(=O)N1[C@@H]2CCC[C@H]1C[C@H](Nc1nc(Nc3cc(C)[nH]n3)cc3ncccc13)C2 [Example 3-6] |  | B (B represents a pKi value between 9 and 10 (Ki between 1 nM and 0.1 nM)) |  |  |  |  |  | THP-1 IL4 pIC50 [1, 3]: A (A represents a pEC50 value≥7.5 (EC50≤32 nM)); Tyk 2 (pKi) (Tyk2): B (B represents a pKi value between 9 and 10 (Ki between 1 nM and 0.1 nM))
Cc1cc(Nc2cc3ncccc3c(N[C@@H]3C[C@H]4CC[C@@H](C3)N4S(C)(=O)=O)n2)n[nH]1 [Example 4-1] |  |  | 0.1 to 1 | < 31.6 | 0.1 to 1 |  |  | 
CCC1(S(=O)(=O)N2[C@@H]3CC[C@H]2C[C@H](Nc2nc(Nc4cc(C)[nH]n4)cc4ncccc24)C3)CC1 [Example 4-7] |  |  | 0.1 to 1 | < 31.6 | 0.1 to 1 |  |  | Ki (JAK1): 0.1 to 1 nM
Cc1cc(Nc2cc3nc(CO)ccc3c(N[C@@H]3C[C@H]4CC[C@@H](C3)N4S(C)(=O)=O)n2)n[nH]1 [Example 5-12] |  |  |  | 31.6 to 200 | 0.1 to 1 |  |  | 
COc1cnc2cc(Nc3cc(C)[nH]n3)nc(N[C@@H]3C[C@H]4CCC[C@@H](C3)N4Cc3ccncc3)c2c1 [Example 6-28] | B (B represents a pKi value between 9 and 10 (Ki between 1 nM and 0.1 nM)) | B (B represents a pKi value between 9 and 10 (Ki between 1 nM and 0.1 nM)) |  |  |  | A (A represents a pEC50 value≥7.5 (EC50≤32 nM)) | A (A represents a pEC50 value≥7.5 (EC50≤32 nM)) | 
COC(=O)c1cnc2cc(Nc3cc(C)[nH]n3)nc(N[C@@H]3C[C@H]4CC[C@@H](C3)N4S(C)(=O)=O)c2c1 [Example 6-33] |  |  |  | 31.6 to 200 | 0.1 to 1 |  |  | 
CCS(=O)(=O)N1[C@@H]2CC[C@H]1C[C@H](Nc1nc(Nc3cc(C)[nH]n3)cc3ncc(C(=O)OC)cc13)C2 [Example 6-34] |  |  |  | < 31.6 | 0.1 to 1 |  |  | 
COC(=O)c1cnc2cc(Nc3cc(C)[nH]n3)nc(N[C@@H]3C[C@H]4CC[C@@H](C3)N4C3CCOC3=O)c2c1 (stereo partly shown) [Example 6-35] |  |  |  | 31.6 to 200 | 0.1 to 1 |  |  | Ki (JAK1; [5]): 0.1 to 1 nM
CCS(=O)(=O)N1[C@@H]2CC[C@H]1C[C@H](Nc1nc(Nc3cc(C)[nH]n3)cc3nccc(OC)c13)C2 [Example 7-2] |  |  | 0.1 to 1 | < 31.6 |  |  |  | IC50 [2]: < 31.6 nM; Ki (JAK1; [5]): 0.1 to 1 nM
COc1ccnc2cc(Nc3cc(C)[nH]n3)nc(N[C@@H]3C[C@H]4CC[C@@H](C3)N4CCC#N)c12 [Example 7-6] | B (B represents a pKi value between 9 and 10 (Ki between 1 nM and 0.1 nM)) | B (B represents a pKi value between 9 and 10 (Ki between 1 nM and 0.1 nM)) |  |  |  | A (A represents a pEC50 value≥7.5 (EC50≤32 nM)) | B (B represents a pEC50 value between 6.7 and 7.5 (EC50 between 200 nM and 32 nM)) | 
COc1ccnc2cc(Nc3cc(C)[nH]n3)nc(N[C@@H]3C[C@H]4CC[C@@H](C3)N4CC(F)(F)F)c12 [Example 7-9] |  |  | 0.1 to 1 | < 31.6 |  |  |  | IC50 [2]: < 31.6 nM; Ki (JAK1): 0.1 to 1 nM
COc1ccnc2cc(Nc3cc(C)[nH]n3)nc(N[C@@H]3C[C@H]4CC[C@@H](C3)N4C3(CC#N)COC3)c12 [Example 7-10] |  |  | 0.1 to 1 |  | 0.1 to 1 |  |  | Ki (JAK1; [5]): 0.1 to 1 nM
Cc1cc(Nc2nc(N[C@@H]3C[C@H]4CC[C@@H](C3)N4Cc3ccncc3)c3cccnc3c2F)n[nH]1 [Example 8-6] | B (B represents a pKi value between 9 and 10 (Ki between 1 nM and 0.1 nM)) | B (B represents a pKi value between 9 and 10 (Ki between 1 nM and 0.1 nM)) |  |  |  | B (B represents a pEC50 value between 6.7 and 7.5 (EC50 between 200 nM and 32 nM)) | B (B represents a pEC50 value between 6.7 and 7.5 (EC50 between 200 nM and 32 nM)) | 
Cc1cc(Nc2nc(N[C@@H]3C[C@H]4CCC[C@@H](C3)N4S(C)(=O)=O)c3cccnc3c2F)n[nH]1 [Example 8-10] | A (A represents a pKi value≥10 (Ki≤0.1 nM)) | A (A represents a pKi value≥10 (Ki≤0.1 nM)) |  |  |  | A (A represents a pEC50 value≥7.5 (EC50≤32 nM)) | A (A represents a pEC50 value≥7.5 (EC50≤32 nM)) | 
Cc1cc(Nc2nc(N[C@@H]3C[C@H]4CCC[C@@H](C3)N4S(=O)(=O)c3cccnc3)c3cccnc3c2F)n[nH]1 [Example 8-12] | B (B represents a pKi value between 9 and 10 (Ki between 1 nM and 0.1 nM)) | B (B represents a pKi value between 9 and 10 (Ki between 1 nM and 0.1 nM)) |  |  |  | A (A represents a pEC50 value≥7.5 (EC50≤32 nM)) | A (A represents a pEC50 value≥7.5 (EC50≤32 nM)) | 
Cc1cnc2c(F)c(Nc3cc(C)[nH]n3)nc(N[C@@H]3C[C@H]4CCC[C@@H](C3)N4S(C)(=O)=O)c2c1 [Example 8-22] | B (B represents a pKi value between 9 and 10 (Ki between 1 nM and 0.1 nM)) | B (B represents a pKi value between 9 and 10 (Ki between 1 nM and 0.1 nM)) |  |  |  | B (B represents a pEC50 value between 6.7 and 7.5 (EC50 between 200 nM and 32 nM)) | B (B represents a pEC50 value between 6.7 and 7.5 (EC50 between 200 nM and 32 nM)) | 
